The values that follow come from EPA's ToxValDB 9.5 (doi:10.2903/j.efsa.2006.61r).

Data set [1] deals with Encarsia formosa.
The test system of data set [2] is Apis mellifera. To be noted: acute, mortality.
The test system of data set [3] is Daphnia magna. To be noted: chronic/long-term; duration: 21 days; reproduction.
Data set [4] relates to Rattus norvegicus. To be noted: for LD50: acute, oral, mortality.
Data set [5] deals with Colinus virginianus. The conditions noted are these: for LD50: acute, oral, mortality.
For data set [6], the system named is Bibionidae. To be noted: chronic/long-term; duration: 28 days; seedling emergence.
The test system of data set [7] is Trichogramma cacoeciae. The conditions noted are these: not reported.
Data set [8] concerns Tagia sp. To be noted: acute; duration: 14 days; mortality.
In data set [9] the test system is Pontoscolex corethrurus. The conditions noted are these: chronic/long-term.
The subject of data set [10] is Anas platyrhynchos. To be noted: acute; oral; unspecified; mortality.
Data set [11] deals with Oncorhynchus mykiss. To be noted: acute; duration: 96 hours; mortality.

≈ marks a conversion by molar mass, not a printed value. Some results are limits rather than exact numbers.

`Cc1cc(C)nc(Nc2ccccc2)n1` [Pyrimethanil]: the LEL in [1] (acute, duration: 6 days, mortality) is 1000 g/ha; in data set [1] (not reported, reproduction), 1000 g/ha; in data set [7] (mortality), 1000 g/ha; in data set [7] (reproduction), 1000 g/ha. Besides, the LD50 is greater than 100 µg/piece in data set [2] (dermal); greater than 100 µg/piece in data set [2] (duration: 48 hours, oral, unspecified); 5970 mg/kg in [4] (F); 4150 mg/kg in [4] (M); greater than 874 mg/kg in [5] (diet); greater than 2000 mg/kg in [5]. In data set [10], this compound displayed an LD50 greater than 2000 mg/kg. For the same compound, the NOEC came out at 0.94 mg/L in data set [3], 4 mg/L in data set [6] and 4.12 mg/kg in data set [9]. Also, the no-observed-adverse-effect level (NOAEL) (usually the highest dose or exposure tested at which no adverse effect was seen) in [4] (chronic, duration: 2 years, clinical chemistry) came to 17 mg/kg-day; in [4] (reproduction developmental, M, body weight), 18.4 mg/kg-day; in data set [4] (subchronic, duration: 90 days, organ weight) it was 5.4 mg/kg-day; in data set [5] (reproduction developmental), 96 mg/kg-day. Moreover, the LC50 stood at 626 mg/kg in [8] and 10.6 mg/L (≈ 53 µM) in data set [11].
